In publication PMC9822135, “Chemical Constituents from the Leaves of Ligustrum robustum and Their Bioactivities” (Molecules, 2023):
Like-named read-outs stand apart in the source and are kept apart here.

Tests used:
[1] = DPPH radical scavenging assay; conditions: mean ± SD (n = 3), NA = no activity
Method: S1.4. DPPH radical scavenging assay
The DPPH radical scavenging assay was used to evaluate the antioxidant activity of compounds 1-10. In a 96-well microplate, 100 µL of DPPH solution (200 µM in ethanol) was added to 100 µL sample in ethanol at graded concentrations ranging from 7 to 500 µM. The compound was incubated in the dark at room temperature for […]

[2] = target: fatty acid synthase (FAS) (Gallus gallus, UniProt P12276); experiment: FAS inhibitory activity assay (NADPH absorbance at 340 nm)
Method: Determination of FAS inhibitory activity
diluted with potassium phosphate buffer (0.1 M, pH 7.0). Sample solution (100 L, 20-2000 μM, 37 °C) and FAS substrates (1.8 mL, 37 °C) were mixed in a cuvette, and then FAS solution (100 L, 37 °C, isolated from chicken liver and kept in ice-bath before use) was added. The absorbance of reaction compound was monitored by a
UV-vis spectrophotometer at 340 nm in 1 min. The inhibitory effect was calculated by the following equation: FAS inhibition (%) = (Acontrol- Asample)/Acontrol×100%, where Acontrolrepresented the FAS activity in the control group (phosphate buffer instead of sample solution), Asamplerepresented the FAS activity in the sample groups. The FAS activity was calculated as (A0 - A1)/1 min, in which A0 was the absorbance of the
reaction compound when the FAS was added, and A1 was the absorbance of the
reaction compound after reaction 1 min. Orlistat was used as the positive control.
FAS substrates: 0.1 M potassium phosphate buffer (pH 7.0), 1 mM ethylene-diaminetetraacetic acid (EDTA), 1 mM dithiothreitol, 3 M acetyl-coenzyme A, 10 M methylmalonyl coenzyme A, 35 M NADPH.

[3] = ABTS radical scavenging assay; conditions: mean ± SD (n = 3)
[4] = system: α-amylase; experiment: α-amylase inhibitory activity assay (starch, DNS reagent); type: biochemical; conditions: mean ± SD (n = 3)
Method: S1.3. Determination of α-amylase inhibitory activity
Phosphate buffer (20 mM, pH 6.9, containing 6 mM NaCl) was used as the […]
µL, 1%, w/v) were mixed and incubated in a 96-well microplate at 37 °C for 10 min.
Then, α-amylase solution (50 µL, 0.2 U/mL) was added and the compound was incubated at 37 °C for an additional 10 min. The reaction was stopped by addition of […]
microplate was immediately heated in 95 °C water bath for 10 min. When the reaction solution cooled to room temperature, allsamples were diluted by adding distilled water (50 µL), and then their absorbance was measured using a microplate reader at […]
starch solution) at 540 nm, thus the inhibitory activity was calculated as (Acontrol-Asample)/Acontrol×100%, in which Asample was the absorbance of the sample and Acontrol was the absorbance of the phosphate buffer control without test samples. Acarbose was used as the positive control.

[5] = system: α-glucosidase; experiment: α-glucosidase inhibitory activity assay (pNPG substrate); type: biochemical, yeast; conditions: for α-Glucosidase Inhibition at 0.1 mM: mean ± SD (n = 3), NA = no activity; for α-glucosidase inhibitory activity (in words): compared with positive control acarbose
Method: S1. Determination of bioactivities […]
S1.2. Determination of α-glucosidase inhibitory activity […]
diluted with phosphate buffer (0.1 M, pH 6.8). […]
and 4-nitrophenyl α-D-glucopyranoside (pNPG) solution (50 µL, 5 mM) were mixed
(1 picture or pasted object on this page, not shown here) […]
and incubated in a 96-well microplate at37 °C for 5 min. α-Glucosidase from yeast (50 µL, 0.2 U/mL) was added and incubated at 37 °C for another 30 min. Finally, 50 µL of Na2CO3 (1M) was added to terminate the reaction. The absorbance of compound was measured using a microplate reader at a wavelength 405 nm. The background absorbance (phosphate buffer instead of substrate pNPG) of all samples […]
calculated by the following equation: α-glucosidase inhibition (%) = (Acontrol-Asample)/Acontrol×100%, where Acontrolrepresented the absorbance of phosphate buffer control without testsamples, Asample represented the absorbance of test samples.
Acarbose was used as the positive control. […]

Sequence of fatty acid synthase (FAS) (P12276 2-2512 limits assumed): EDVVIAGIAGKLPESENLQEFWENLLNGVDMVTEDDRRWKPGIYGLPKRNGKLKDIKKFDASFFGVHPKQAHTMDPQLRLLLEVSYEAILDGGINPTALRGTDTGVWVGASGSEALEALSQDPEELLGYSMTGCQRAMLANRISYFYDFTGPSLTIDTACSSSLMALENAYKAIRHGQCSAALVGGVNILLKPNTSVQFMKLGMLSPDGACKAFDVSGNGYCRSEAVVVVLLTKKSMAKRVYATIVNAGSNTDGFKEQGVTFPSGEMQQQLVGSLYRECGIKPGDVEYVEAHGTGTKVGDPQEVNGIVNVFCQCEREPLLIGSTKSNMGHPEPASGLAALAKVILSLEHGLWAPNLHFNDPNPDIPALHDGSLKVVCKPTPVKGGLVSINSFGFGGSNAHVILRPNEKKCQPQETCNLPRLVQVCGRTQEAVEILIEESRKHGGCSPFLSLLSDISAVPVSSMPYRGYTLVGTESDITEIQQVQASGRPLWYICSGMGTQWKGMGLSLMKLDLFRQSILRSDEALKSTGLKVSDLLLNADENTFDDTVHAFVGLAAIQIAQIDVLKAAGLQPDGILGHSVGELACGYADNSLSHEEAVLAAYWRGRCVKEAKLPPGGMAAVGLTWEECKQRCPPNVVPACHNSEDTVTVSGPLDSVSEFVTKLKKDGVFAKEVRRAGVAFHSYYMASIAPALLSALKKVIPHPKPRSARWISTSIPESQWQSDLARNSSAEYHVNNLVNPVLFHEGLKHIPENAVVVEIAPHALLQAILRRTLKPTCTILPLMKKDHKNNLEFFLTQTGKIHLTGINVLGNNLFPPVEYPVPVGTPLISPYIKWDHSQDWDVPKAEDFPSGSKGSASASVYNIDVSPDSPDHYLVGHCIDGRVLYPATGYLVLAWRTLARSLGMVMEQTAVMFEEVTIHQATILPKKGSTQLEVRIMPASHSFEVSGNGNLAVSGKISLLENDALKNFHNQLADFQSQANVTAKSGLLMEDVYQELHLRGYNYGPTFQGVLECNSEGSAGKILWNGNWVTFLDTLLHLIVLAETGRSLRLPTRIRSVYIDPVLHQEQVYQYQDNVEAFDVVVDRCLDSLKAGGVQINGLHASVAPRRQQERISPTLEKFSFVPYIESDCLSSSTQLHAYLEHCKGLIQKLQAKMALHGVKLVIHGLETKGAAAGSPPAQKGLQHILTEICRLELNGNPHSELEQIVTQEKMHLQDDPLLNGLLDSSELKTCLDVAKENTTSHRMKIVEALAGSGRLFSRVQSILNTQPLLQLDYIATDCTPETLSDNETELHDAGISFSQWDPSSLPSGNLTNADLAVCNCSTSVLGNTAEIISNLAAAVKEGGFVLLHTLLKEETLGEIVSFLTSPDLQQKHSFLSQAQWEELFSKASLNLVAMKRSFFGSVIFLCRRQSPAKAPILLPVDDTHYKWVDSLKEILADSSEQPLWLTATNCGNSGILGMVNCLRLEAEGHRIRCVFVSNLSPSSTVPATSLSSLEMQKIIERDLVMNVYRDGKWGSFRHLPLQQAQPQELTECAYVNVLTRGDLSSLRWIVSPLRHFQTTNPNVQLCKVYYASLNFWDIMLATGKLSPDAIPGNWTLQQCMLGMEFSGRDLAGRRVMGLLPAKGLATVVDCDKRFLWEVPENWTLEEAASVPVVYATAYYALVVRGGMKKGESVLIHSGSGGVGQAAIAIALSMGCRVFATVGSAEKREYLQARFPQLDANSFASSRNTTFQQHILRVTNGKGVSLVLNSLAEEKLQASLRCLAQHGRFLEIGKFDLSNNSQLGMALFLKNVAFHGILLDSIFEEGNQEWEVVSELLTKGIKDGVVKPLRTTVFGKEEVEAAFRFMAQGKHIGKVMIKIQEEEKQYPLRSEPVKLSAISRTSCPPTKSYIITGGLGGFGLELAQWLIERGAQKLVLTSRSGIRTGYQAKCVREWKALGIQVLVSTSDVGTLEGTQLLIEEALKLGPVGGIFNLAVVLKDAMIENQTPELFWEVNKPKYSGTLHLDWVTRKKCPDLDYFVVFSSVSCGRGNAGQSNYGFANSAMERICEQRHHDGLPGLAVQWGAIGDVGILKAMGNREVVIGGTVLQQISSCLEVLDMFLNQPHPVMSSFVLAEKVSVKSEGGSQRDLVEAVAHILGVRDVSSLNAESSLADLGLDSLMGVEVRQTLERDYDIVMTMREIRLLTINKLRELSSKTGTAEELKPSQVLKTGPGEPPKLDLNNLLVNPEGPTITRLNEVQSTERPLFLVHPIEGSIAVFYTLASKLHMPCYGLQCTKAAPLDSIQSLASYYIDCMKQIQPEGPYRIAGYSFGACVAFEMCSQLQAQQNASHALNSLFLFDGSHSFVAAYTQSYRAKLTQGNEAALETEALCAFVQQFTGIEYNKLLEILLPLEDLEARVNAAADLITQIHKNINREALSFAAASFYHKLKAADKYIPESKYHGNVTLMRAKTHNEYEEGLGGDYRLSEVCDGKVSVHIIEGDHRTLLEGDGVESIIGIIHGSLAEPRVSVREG

| SMILES | IC50 [1] [µM] | IC50 [2] [µM] | IC50 [3] [µM] | α-Amylase Inhibition at 0.1 mM [4] | IC50 ([2]; read-out: FAS IC50, mean ± SD (n = 3), NA = no activity, FAS isolated from chicken liver) [µM] | α-Glucosidase Inhibition at 0.1 mM [5] | α-glucosidase inhibitory activity (in words) [5] |
| --- | --- | --- | --- | --- | --- | --- | --- |
| C[C@@H]1O[C@@H](O[C@H]2[C@H](O)[C@@H](COC(=O)C=Cc3ccc(O)cc3)OC(O)[C@@H]2O)[C@H](O)[C@H](O)[C@H]1O (some centres unmarked) [Compound 3] | > 250 | 6.25 ± 0.2 | 12.04 ± 0.08 | 29.8 ± 1.8 bc % |  |  |  |
| C=C(C)CO[C@@H]1O[C@H](COC(=O)C=Cc2ccc(O)cc2)[C@@H](O)[C@H](O[C@@H]2O[C@@H](C)[C@H](O)[C@@H](O)[C@H]2O)[C@H]1O [Compound 2] |  |  | 103 ± 4 | 24.0 ± 1.5 bc % | 4.1 ± 0.12 |  |  |
| O=c1c(O[C@@H]2O[C@H](CO)[C@@H](O)[C@H](O)[C@H]2O)c(-c2ccc(O)cc2)oc2cc(O[C@@H]3O[C@H](CO)[C@@H](O)[C@H](O)[C@H]3O)cc(O)c12 [Compound 7, kaempferol 3,7-diglucoside] |  | 8.1 ± 0.37 | 9.34 ± 0.04 | 31.8 ± 0.5 b % |  | 15.6 ± 0.9 c % | moderate and weaker than acarbose |
| COc1cc([C@H]2c3cc(O[C@@H]4O[C@H](CO)[C@@H](O)[C@H](O)[C@H]4O)c(OC)cc3C[C@@](O)(CO)[C@@H]2CO)ccc1O [Compound 8, (+)-cycloolivil 6-O-β-D-glucopyranoside] | > 250 | 8.01 ± 0.26 | 29.1 ± 1.11 | 28.5 ± 2.7 bc % |  |  |  |
| CC/C=C/CCO[C@@H]1O[C@H](COC(=O)C=Cc2ccc(O)cc2)[C@@H](O)[C@H](O[C@@H]2O[C@@H](C)[C@H](O)[C@@H](O)[C@H]2O)[C@H]1O [Compound 1] |  |  | 5.65 ± 0.19 | 27.9 ± 6.4 bc % |  |  |  |
| C[C@@H]1O[C@@H](O[C@@H]2[C@@H](O)[C@@H](O)[C@H](O[C@H]3[C@H](O)[C@@H](COC(=O)C=Cc4ccc(O)cc4)OC(O)[C@@H]3O)O[C@H]2C)[C@H](O)[C@H](O)[C@H]1O (some centres unmarked) [Compound 5] | > 250 | 9.75 ± 0.24 | 15.5 ± 0.36 | 26.5 ± 4.0 bc % |  |  |  |
| COC(=O)C=Cc1ccc(O)cc1 [Compound 9] | > 250 | 15.4 ± 0.42 | 8.78 ± 0.09 | 29.5 ± 0.6 bc % |  | 33.8 ± 2.9 b % | moderate and weaker than acarbose |
| C[C@@H]1O[C@@H](O[C@H]2[C@H](OC(=O)/C=C/c3ccc(O)c(O)c3)[C@@H](CO)OC(O)[C@@H]2O)[C@H](O)[C@H](O)[C@H]1O (stereo partly drawn) [Compound 6, 3-O-(α-L-rhamnopyranosyl)-4-O-(trans-caffeoyl)-D-glucopyranose] | 46.7 ± 1.58 |  | 17 ± 0.45 | 23.0 ± 0.7 c % |  |  |  |
| OCCc1ccc(O)cc1 [Compound 10, 4-hydroxyphenylethanol] |  |  | 3.41 ± 0.08 | 16.2 ± 5.0 d % |  |  |  |
| CC1OC(OC2C(O)C(O)OC(CO)C2OC(=O)C=Cc2ccc(O)cc2)C(O)C(O)C1O (centres unmarked) [Compound 4] |  | 10.5 ± 0.32 | 11.2 ± 0.4 | 25.6 ± 1.0 bc % |  |  |  |
| O=C1O[C@H]([C@@H](O)CO)C(O)=C1O [L-(+)-ascorbic acid, reference compound] | 13.66 ± 0.13 |  | 10.1 ± 0.19 |  |  |  |  |
